Conditions: Fluid (supercritical or subcritical phases), Bellows volumetry

CCCC [butane]
mass density [kg/m3]
Conditions | 360 K | 400 K | 440 K | 500 K | 550 K | 600 K
50000 kPa | 585.47 | 556.11 | 527.49 | 485.76 | 452.74 | 421.67
60000 kPa | 595.41 | 567.8 | 541.19 | 502.86 | 472.65 | 444.04
70000 kPa | 604.19 | 578.11 | 552.99 | 517.01 | 489.04 | 462.25
80000 kPa | 612.02 | 587.28 | 563.51 | 529.24 | 503.05 | 477.92
90000 kPa | 619.58 | 595.58 | 572.93 | 540.26 | 515.43 | 491.53
100000 kPa | 626.29 | 603.28 | 581.43 | 550.18 | 526.47 | 503.41
120000 kPa | 638.57 | 617 | 596.67 | 567.64 | 545.49 | 524.18
140000 kPa | 649.66 | 629.05 | 609.84 | 582.51 | 561.8 | 541.56
160000 kPa | 659.24 | 639.75 | 621.49 | 595.57 | 575.61 | 556.81
180000 kPa | 668.57 | 649.69 | 632.12 | 607.21 | 588.11 | 570.23
200000 kPa | 676.57 | 658.6 | 641.85 | 617.68 | 599.35 | 582.23

CCC [propane]
mass density [kg/m3]
Conditions | 360 K | 400 K | 440 K | 500 K | 550 K | 600 K
50000 kPa | 520.66 | 488.73 | 457.63 | 413.41 | 380.04 | 349.68
60000 kPa | 532.63 | 503.01 | 474.47 | 434.04 | 403.51 | 375.39
70000 kPa | 543.15 | 515.19 | 488.72 | 450.94 | 422.59 | 396.1
80000 kPa | 552.56 | 525.98 | 500.95 | 465.53 | 438.76 | 413.71
90000 kPa | 560.92 | 535.66 | 511.84 | 477.92 | 452.84 | 428.88
100000 kPa | 568.67 | 544.28 | 521.48 | 489.12 | 464.72 | 442.26
120000 kPa | 582.46 | 559.78 | 538.35 | 508.54 | 485.88 | 465.07
140000 kPa | 594.1 | 573.12 | 552.91 | 524.91 | 503.64 | 484.26
160000 kPa | 605.2 | 584.9 | 565.72 | 539.2 | 518.92 | 500.33
180000 kPa | 614.83 | 595.54 | 577.17 | 551.84 | 532.53 | 514.78
200000 kPa | 624.04 | 605.48 | 587.69 | 563.13 | 544.69 | 527.68

CC(C)C [2-methylpropane]
mass density [kg/m3]
Conditions | 360 K | 400 K | 440 K | 500 K | 550 K | 600 K
50000 kPa | 568.86 | 539.91 | 512.43 | 472.16 | 440.41 | 410.52
60000 kPa | 579.25 | 552.31 | 526.93 | 489.95 | 460.74 | 433.26
70000 kPa | 588.53 | 563.06 | 539.33 | 504.87 | 477.5 | 451.97
80000 kPa | 597.04 | 572.73 | 550.28 | 517.77 | 492.04 | 467.84
90000 kPa | 604.5 | 581.56 | 559.97 | 529.04 | 504.6 | 481.73
100000 kPa | 611.74 | 589.43 | 568.96 | 539.24 | 515.83 | 494.03
120000 kPa | 624.36 | 603.57 | 584.57 | 557 | 535.44 | 515.09
140000 kPa | 635.51 | 615.95 | 598.12 | 572.25 | 551.94 | 532.7
160000 kPa | 645.68 | 627.09 | 610.19 | 585.63 | 566.41 | 548.14
180000 kPa | 655.03 | 637.21 | 621.17 | 597.32 | 579.21 | 561.73
200000 kPa | 663.47 | 646.22 | 631.03 | 607.94 | 590.74 | 573.91

Reference: the NIST ThermoML archive (doi:10.1007/s10765-012-1383-x)
